According to EP1900728A1 (Genecare Research Institute Co., Ltd, priority 2005, dated 2006):
Read-outs that look alike come from different tables or passages of the source.

How the values were obtained:
[1] = biological target: T1, IκBα ubiquitinating enzyme (SCF complex: ROC1, Cullin1, Skp1, His-TrCP1; with E1, UbcH5b) (Homo sapiens, UniProt P62877+P63208+Q13616+Q9Y297); test: Measurement of ubiquitinating enzyme activity (IκBα ubiquitination, time-resolved fluorescence with Eu(K)-labeled ubiquitin and XL665-labeled anti-GST antibody); assay type: biochemical
T1 construct: His (polyhistidine); made in house; host or cells: insect cells (baculovirus) for the SCF complex and His-E1; E. coli for His-UBCH5b
Summary of the method: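 Human SCF complex with E1 and UbcH5b ubiquitinated GST-IκBα pre-phosphorylated by IKKβ (2 mM ATP, pH 7.4, 1 h, RT), with Eu(K)-ubiquitin, 30 min RT. Stopped with EDTA, XL665 anti-GST added for 2 h; 665/620 nm TR-FRET ratio. % inhibition versus no-compound control and no-SCF blank gave IC50.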

[2] = system: ICAM-1 expression in HT-29 cells; test: Measurement of ICAM-1 expressing activity (TNFα-induced ICAM-1 expression, cell ELISA); assay type: cell-based; conditions: Homo sapiens, Table 6, cell activity inhibition test by method (3), read-out: EVALUATION (IC50 class, inhibition of cell activity)
Description: Method 2: Measurement of ICAM-1 expressing activity
2.0 x 10^4 HT-29 cells (ATCC) were plated onto a 96-well plate, and the cells were cultured for 48 hours using a McCoy' 5A medium (GIBCO) containing 10% inactivated fetal calf serum. The culture medium was removed, a culture medium containing a compound to be evaluated (final DMSO concentration of 0.5%) was added, and this was incubated at 37°C for 30 minutes. Thirty ng/mL of human TNFα (GIBCO) was added, and this was incubated at 37°C for 4 hours. After washing once with a washing solution (PBS containing 0.05% Tween 20), ice-cooled methanol was added, and this was left on ice for 10 minutes and then fixed. After removing methanol, PBS containing 1% BSA was added, and blocking was performed by letting this stand at room temperature for 30 minutes. Anti-ICAM-1 antibody (Santa Cruz Biotechnology) was added, and this was left to stand at room temperature for 1 hour. After washing with the washing solution, POD-labeled secondary antibody was added, and this was left to stand at room temperature for 30 minutes. This was washed, 100 µL of 100 mM citric acid buffer (pH4.2) containing 1 mM TMBZ and 0.03% H2O2 was added, and this was reacted at room temperature for 15 minutes. The reaction was terminated with 100 µL of 2 N H2SO4, and the absorbance at 450 nm was measured using ARVO-HTS (Perkin Elmer).
When cells are stimulated with TNFα, IκBα is degraded after ubiquitination resulting in the activation of NFκB and the promotion of the expression of adhesion factor ICAM-1. Therefore, the suppression of ICAM-1 expression described above serves as an indicator to determine the effectiveness of the compound in the cells.

[3] = enzyme activity inhibition test, method (1), Table 5, read-out: EVALUATION

T1 sequence (Q9Y297 whole entry): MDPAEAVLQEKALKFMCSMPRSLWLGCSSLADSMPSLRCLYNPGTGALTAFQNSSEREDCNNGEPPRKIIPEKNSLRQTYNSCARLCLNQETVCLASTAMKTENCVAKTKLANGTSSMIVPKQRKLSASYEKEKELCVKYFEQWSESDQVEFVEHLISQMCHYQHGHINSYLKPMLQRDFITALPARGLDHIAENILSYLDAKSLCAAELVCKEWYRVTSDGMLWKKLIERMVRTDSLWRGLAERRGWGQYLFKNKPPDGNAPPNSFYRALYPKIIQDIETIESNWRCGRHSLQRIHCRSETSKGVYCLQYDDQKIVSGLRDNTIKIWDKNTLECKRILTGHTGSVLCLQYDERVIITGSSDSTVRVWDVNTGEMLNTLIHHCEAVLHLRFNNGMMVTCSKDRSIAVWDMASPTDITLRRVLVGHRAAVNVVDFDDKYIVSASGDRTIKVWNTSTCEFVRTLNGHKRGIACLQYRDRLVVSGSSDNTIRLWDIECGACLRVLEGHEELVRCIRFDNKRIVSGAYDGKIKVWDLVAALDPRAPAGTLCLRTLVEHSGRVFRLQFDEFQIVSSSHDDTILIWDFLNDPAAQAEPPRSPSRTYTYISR
T1 sequence (Q13616 whole entry): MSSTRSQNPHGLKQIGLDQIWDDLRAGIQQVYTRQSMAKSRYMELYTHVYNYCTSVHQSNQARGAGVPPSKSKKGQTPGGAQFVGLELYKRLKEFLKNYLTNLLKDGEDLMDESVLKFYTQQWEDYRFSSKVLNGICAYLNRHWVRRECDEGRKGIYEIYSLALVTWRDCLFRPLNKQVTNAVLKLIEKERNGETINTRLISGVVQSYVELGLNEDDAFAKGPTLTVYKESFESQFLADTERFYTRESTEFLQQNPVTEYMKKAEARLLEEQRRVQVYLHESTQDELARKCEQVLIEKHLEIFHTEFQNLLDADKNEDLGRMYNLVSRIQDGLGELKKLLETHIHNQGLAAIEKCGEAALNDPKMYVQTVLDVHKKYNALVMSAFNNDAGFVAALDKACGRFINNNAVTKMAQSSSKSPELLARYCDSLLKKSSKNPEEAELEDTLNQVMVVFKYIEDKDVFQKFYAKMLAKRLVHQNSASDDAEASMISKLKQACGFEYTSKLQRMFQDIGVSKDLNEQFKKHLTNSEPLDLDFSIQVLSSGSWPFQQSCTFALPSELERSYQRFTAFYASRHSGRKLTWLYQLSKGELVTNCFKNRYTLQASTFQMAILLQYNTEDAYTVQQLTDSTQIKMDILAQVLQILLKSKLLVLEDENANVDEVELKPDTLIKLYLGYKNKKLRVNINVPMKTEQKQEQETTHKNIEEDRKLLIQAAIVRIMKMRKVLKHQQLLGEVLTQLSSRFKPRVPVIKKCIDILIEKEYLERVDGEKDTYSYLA
T1 sequence (P63208 whole entry): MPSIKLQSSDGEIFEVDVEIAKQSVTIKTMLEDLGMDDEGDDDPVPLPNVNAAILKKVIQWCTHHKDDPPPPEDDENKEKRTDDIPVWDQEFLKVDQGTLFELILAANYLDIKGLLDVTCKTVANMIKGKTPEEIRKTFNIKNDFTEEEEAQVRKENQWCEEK
T1 sequence (P62877 whole entry): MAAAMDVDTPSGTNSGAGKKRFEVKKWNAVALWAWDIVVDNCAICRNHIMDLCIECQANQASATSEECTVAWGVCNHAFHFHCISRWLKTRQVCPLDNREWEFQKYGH

Row | IC50 [1, 3] | IC50 [2] | SMILES | IC50 [1]
1 | 10 to 20 µM | < 40 µM | COCCC1=NN(c2ccc(C(=O)O)cc2)C(=O)/C1=C\c1ccc(-c2cnn(C)c2)o1 [Compound 512] | 
2 | 10 to 20 µM | 10 to 20 µM | COc1cc(/C=C2\C(=O)N(c3ccc(C(=O)O)cc3)N=C2Cc2ccccc2)ccc1OCc1ccccc1 [Compound 265] | 
3 | < 10 µM | 10 to 20 µM | CC1=NN(c2ccc(C(=O)O)cc2)C(=O)/C1=C\c1ccc(-n2cccn2)cc1 [Compound 261] | 
4 | 10 to 20 µM | 10 to 20 µM | CC(=O)c1ccc(-c2ccc(/C=C3\C(=O)N(c4cccc(C(=O)O)c4)N=C3C)o2)cc1 [Compound 504] | 
5 | < 10 µM | < 40 µM | O=C(O)c1ccc(N2N=C(c3cccnc3)/C(=C/c3ccc(CO)o3)C2=O)cc1 [Compound 308] | 
6 | 10 to 20 µM | < 40 µM | O=C(O)c1ccc(N2N=C(Cc3ccccc3)/C(=C/c3ccc(-n4ccnc4)cc3)C2=O)cc1 [Compound 271] | 
7 | 10 to 20 µM | 10 to 20 µM | Cn1cc(-c2ccc(/C=C3\C(=O)N(c4ccc(C(=O)O)cc4)N=C3Cc3ccccc3)o2)cn1 [Compound 518] | 
8 | < 10 µM | < 40 µM | CC1=NN(c2ccc(C(=O)O)cc2)C(=O)/C1=C\c1ccc(OCC(=O)Nc2ccccc2)cc1 [Compound 537] | 
9 | < 10 µM | 10 to 20 µM | O=C(O)c1ccc(N2N=C(c3ccoc3)/C(=C/c3ccc(-c4cnn(Cc5ccccc5)c4)o3)C2=O)cc1 [Compound 492] | 
10 | < 10 µM | 10 to 20 µM | CCCCC1=NN(c2ccc(C(=O)O)cc2)C(=O)/C1=C\c1ccc(CO)o1 [Compound 300] | 
11 | < 10 µM | 10 to 20 µM | O=C(O)c1cccc(N2N=C(c3ccoc3)/C(=C/c3ccc(-c4cnn(Cc5ccccc5)c4)o3)C2=O)c1 [Compound 490] | 
12 | < 10 µM | < 40 µM | CCCCC1=NN(c2ccc(C(=O)O)cc2)C(=O)/C1=C\c1ccc2[nH]ccc2c1 [Compound 474] | 
13 | < 10 µM | < 40 µM | CC(=O)N1CCN(c2ccc(/C=C3\C(=O)N(c4cccc(C(=O)O)c4)N=C3C)cc2)CC1 [Compound 442] | 
14 | < 10 µM | < 40 µM | CC1=NN(c2cccc(C(=O)O)c2)C(=O)C1=Cc1ccc(N2CCN(c3ccccc3)CC2)cc1 [Compound 423] | 

The remaining lines, values behind:

Row | SMILES | IC50 [1, 3] | IC50 [2] | IC50 [1]
15 | COc1ccc(C2=NN(c3ccccc3)C(=O)/C2=C\c2ccc3c(c2)OCCO3)cc1OC [Compound 37] | 10 to 20 µM | < 40 µM | 
16 | CC1=NN(c2ccc(S(N)(=O)=O)cc2)C(=O)/C1=C\c1ccc(OCC(N)=O)cc1 [Compound 208] | < 10 µM | < 40 µM | 
17 | CC1=NN(c2ccccc2)C(=O)/C1=C\c1ccc(-c2ccccc2F)o1 [Compound 19] | < 10 µM | < 40 µM | 
18 | COC(=O)N1CCN(c2ccc(C=C3C(=O)N(c4ccc(C(=O)O)cc4)N=C3c3ccoc3)cc2)CC1 [Compound 245] |  | 10 to 20 µM | < 10 µM
19 | COc1ccc(C(=O)Nc2ccc(C=C3C(=O)N(c4ccc(S(N)(=O)=O)cc4)N=C3C)cc2)cc1 [Compound 229] |  | 10 to 20 µM | < 10 µM
20 | CC1=NN(c2cccc(S(N)(=O)=O)c2)C(=O)C1=Cc1ccc(N2CCN(C(=O)OC(C)(C)C)CC2)cc1 [Compound 180] |  | < 40 µM | 10 to 20 µM
21 | CC1=NN(c2ccccc2)C(=O)/C1=C\c1ccc2[nH]ccc2c1 [Compound 127] | < 10 µM | < 40 µM | 
22 | COCC1=NN(c2ccc(C(=O)O)cc2)C(=O)/C1=C\c1ccc2c(c1)OCCO2 [Compound 239] | < 10 µM | < 10 µM | 
23 | COc1cc(/C=C2\C(=O)N(c3ccccc3)N=C2c2ccoc2)ccc1O [Compound 11] | < 10 µM | < 40 µM | 
24 | CC1=NN(c2ccc(S(N)(=O)=O)cc2)C(=O)/C1=C\c1ccc(Oc2ccccc2)cc1 [Compound 213] | 10 to 20 µM | < 10 µM | 
25 | CC1=NN(c2ccc(S(N)(=O)=O)cc2)C(=O)/C1=C\c1ccc(NC(=O)c2ccccc2)cc1 [Compound 224] | < 10 µM | 10 to 20 µM | 
